According to ChEMBL document CHEMBL4813973, “Discovery of novel N-benzylbenzamide derivatives as tubulin polymerization inhibitors with potent antitumor activities” (Eur J Med Chem, 2021):
≈ marks a conversion by molar mass, not a printed value. Calls of active or inactive are those of the source. The rule behind the calls is not given here.

Tests used:
[1] = test system: A-431; assay: Induction of apoptosis in human A-431 cells assessed as nuclear fragmentation at 7.5 to 30 nM incubated for 48 hrs by Hoechst33342 staining based fluorescent microscopy; assay type: functional, cell-based; details: dose 7.5-30 nM
[2] = test system: A-431; assay: Induction of apoptosis in human A-431 cells assessed as activation of p53 at 7.5 to 30 nM by western blot analysis; assay type: functional, cell-based; details: dose 7.5-30 nM
[3] = test system: A-431; assay: Antiproliferative activity against human A-431 cells assessed as reduction in cell viability incubated for 72 hrs by MTT assay; assay type: functional, cell-based; details: A-431, 72 h
[4] = test system: MDA-MB-231; assay: Antiproliferative activity against human MDA-MB-231 cells assessed as reduction in cell viability incubated for 72 hrs by MTT assay; assay type: functional, cell-based; details: MDA-MB-231, 72 h
[5] = test system: H22; assay: Antiproliferative activity against mouse H22 cells assessed as reduction in cell viability incubated for 72 hrs by MTT assay; assay type: functional, cell-based; details: H22, 72 h
[6] = test system: Bel-7402; assay: Antiproliferative activity against ADR-resistant human Bel-7402 cells assessed as reduction in cell viability incubated for 72 hrs by MTT assay; assay type: functional, cell-based; details: Homo sapiens, Bel-7402, 72 h; read-out: IC50
[7] = Resistant index, ratio of IC50 for ADR-resistant human Bel-7402 cells to IC50 for human Bel-7402 cells; assay type: functional
[8] = Resistant index, ratio of IC50 for taxol-resistant human HCT-8 cells to IC50 for human HCT-8 cells; assay type: functional
[9] = test system: K562/VCR; assay: Antiproliferative activity against VCR resistant human K562/VCR cells assessed as reduction in cell viability incubated for 72 hrs by MTT assay; assay type: functional, cell-based; details: Homo sapiens, K562/VCR, 72 h; read-out: IC50
[10] = Resistant index, ratio of IC50 for VCR resistant human K562 cells to IC50 for human K562 cells; assay type: functional
[11] = Aqueous solubility of the compound in aqueous HCl at pH 2 by HPLC-UV analysis; assay type: physicochemical
[12] = Inhibition of pig brain tubulin polymerisation incubated for 30 mins and measured every 2 mins for 60 mins by spectrophotometric method; assay type: tissue-based, Sus scrofa
[13] = organism: Sus scrofa; assay: Inhibition of [3H]colchicine binding to biotinylated pig brain tubulin at 5 uM incubated for 2 hrs in presence of GTP by competitive scintillation proximity assay; assay type: tissue-based
[14] = test system: A-431; assay: Anti-microtubule activity in human A-431 cells assessed as disruption of microtubule network at 7.5 to 30 nM incubated for 24 hrs by DAPI staining based confocal microscopic analysis; assay type: functional, cell-based; details: dose 7.5-30 nM
[15] = test system: A-431; assay: Anti-microtubule activity in human A-431 cells assessed as loss of cellular structure at 7.5 to 30 nM incubated for 24 hrs by DAPI staining based confocal microscopic analysis; assay type: functional, cell-based; details: dose 7.5-30 nM
[16] = test system: A-431; assay: Anti-microtubule activity in human A-431 cells assessed as cell membrane rounding at 7.5 to 30 nM incubated for 24 hrs by DAPI staining based confocal microscopic analysis; assay type: functional; details: dose 7.5-30 nM
[17] = test system: A-431; assay: Induction of cell cycle arrest in human A-431 cells assessed as accumulation at S phase at 7.5 nM after 48 hrs by propidium iodide staining based flow cytometry (reference value: 46.57%); assay type: functional
[18] = test system: A-431; assay: Induction of cell cycle arrest in human A-431 cells assessed as accumulation at G2 phase at 15 nM after 48 hrs by propidium iodide staining based flow cytometry (reference value: 7.27%); assay type: functional
[19] = test system: A-431; assay: Induction of cell cycle arrest in human A-431 cells assessed as accumulation at G2 phase at 30 nM after 48 hrs by propidium iodide staining based flow cytometry (reference value: 7.27%); assay type: functional
[20] = test system: A-431; assay: Cell cycle arrest in human A-431 cells assessed as downregulation of p-histone H3 expression by Western blot analysis; assay type: functional, cell-based; details: dose 7.5-30 nM
[21] = test system: A-431; assay: Induction of apoptosis in human A-431 cells assessed as viable cells at 7.5 nM after 48 hrs by Annexin-V-APC/PI-staining based flow cytometric analysis (reference value: 93.37%); assay type: functional; details: read-out: Activity
[22] = test system: A-431; assay: Induction of apoptosis in human A-431 cells assessed as early apoptotic cells at 7.5 nM after 48 hrs by Annexin-V-APC/PI-staining based flow cytometric analysis (reference value: 0.82%); assay type: functional
[23] = test system: A-431; assay: Induction of apoptosis in human A-431 cells assessed as early apoptotic cells at 15 nM after 48 hrs by Annexin-V-APC/PI-staining based flow cytometric analysis (reference value: 0.82%); assay type: functional
[24] = test system: A-431; assay: Induction of apoptosis in human A-431 cells assessed as late apoptotic cells at 30 nM after 48 hrs by Annexin-V-APC/PI-staining based flow cytometric analysis (reference value: 2.02%); assay type: functional
[25] = test system: A-431; assay: Induction of apoptosis in human A-431 cells assessed as necrotic cells at 30 nM after 48 hrs by Annexin-V-APC/PI-staining based flow cytometric analysis (reference value: 3.79%); assay type: functional
[26] = test system: A-431; assay: Induction of apoptosis in human A-431 cells assessed as upregulation of Bax protein expression by western blot analysis; assay type: functional, cell-based; details: dose 7.5-30 nM
[27] = test system: A-431; assay: Induction of apoptosis in human A-431 cells assessed as activation of caspase 3 by western blot analysis; assay type: functional, cell-based; details: dose 7.5-30 nM
[28] = test system: A-431; assay: Induction of apoptosis in human A-431 cells assessed as increase in cleaved PARP expression at 7.5 to 30 nM by western blot analysis; assay type: functional, cell-based; details: dose 7.5-30 nM
[29] = Metabolic stability in rat plasma assessed as parent compound remaining at 100 nM measured after 60 mins by HPLC analysis; assay type: ADME, cell-free; details: 1 h, 0.1 µM
[30] = test system: H22; assay: Antitumor activity against […] xenografted in ICR mouse assessed as reduction of tumor weight at 20 mg/kg/day, iv for 21 days; assay type: functional; details: 504 h, time 21 day
[31] = Induction of mitochondria membrane potential loss in human A-431 cells assessed as green fluorescence intensity at 7.5 nM incubated 48 hrs by JC-1 probe based flow cytometry analysis (reference value: 5.98%); assay type: functional
[32] = test system: H22; assay: Antitumor activity against […] xenografted in ICR mouse assessed as reduction of tumor weight at 10 mg/kg/day, iv for 21 days; assay type: functional; details: 504 h, time 21 day
[33] = test system: HUVEC; assay: Antivascular activity in HUVEC assessed as inhibition of migration activity at 30 nM measured after 24 hrs by wound healing based phase contrast microscopic analysis; assay type: functional, cell-based; details: Homo sapiens
[34] = test system: HepG2; assay: cells; details: Homo sapiens, HepG2, 72 h
[35] = test system: A-431; assay: Induction of ROS generation in human A-431 cells incubated for 48 hrs by DCFH-DA dye based flow cytometry; details: dose 7.5-30 nM

For `COc1ccc(CNC(=O)c2cc(F)ccc2N2CCOCC2)cc1O`, the Activity [1] was “Active”, the Activity [2] was “Active” and the IC50 [3] was 14 nM. It also gave an IC50 [4] of 27 nM, an IC50 [5] of 24 nM and an IC50 [6] of 104 nM. For the same molecule, the “Ratio IC50” value [7] was 3.9, the “Ratio IC50” value [8] was 5.3 and the IC50 [9] was 205 nM. For the same molecule, the “Ratio IC50” value [10] was 10.8, the solubility [11] was 323 µg/mL (≈ 897 µM) and the IC50 [12] was 3.03 µM. The inhibition [13] was 82.9%, the Activity [14] was “Active” and the Activity [15] was “Active”. For the same molecule, the Activity [16] was “Active”, the Activity [17] was 40.02% and the Activity [18] was 16.25%. For the same molecule, the Activity [19] was 24.95%, the Activity [20] was “Dose-Dependent Effect” and the viability at 0.0075 µM [21] was 71%. For the same molecule, the Activity [22] was 11.52%, the Activity [23] was 18.35% and the Activity [24] was 32.12%. For the same molecule, the Activity [25] was 7.35%, the Activity [26] was “Dose-Dependent Effect” and the Activity [27] was “Dose-Dependent Effect”. The Activity [28] was “Active”, the Stabilty [29] was “Stable” and the inhibition in vivo at 20 mg/kg/day [30] was 66%. For the same molecule, the Activity [31] was 26.73%, the inhibition in vivo at 10 mg/kg/day [32] was 50.3% and the Activity [33] was “Active”. The IC50 [34] was 25 nM and the Activity [35] was “Dose-Dependent Effect”.
